≈ marks a conversion by molar mass, not a printed value.
Columns and labels:
Staphylococcus aureus [1] = test: Antibacterial activity against Staphylococcus aureus ATCC 25923 by NCCLS protocol based broth microdilution method; type: functional
[2] = Antibacterial activity against Salmonella choleraesuis 14028 by NCCLS protocol based broth microdilution method; type: functional, Salmonella enterica subsp. enterica serovar Choleraesuis; conditions: Salmonella enterica
Escherichia coli [3] = test: Antibacterial activity against Escherichia coli ATCC 25922 by NCCLS protocol based broth microdilution method; type: functional
Streptococcus pneumoniae [4] = test: Antibacterial activity against Streptococcus pneumoniae 49619 by NCCLS protocol based broth microdilution method; type: functional
[5] = system: Staphylococcus epidermidis; test: Antibacterial activity against Staphylococcus epidermidis ATCC 12228 by NCCLS protocol based broth microdilution method; type: functional
Pseudomonas aeruginosa [6] = test: Antibacterial activity against Pseudomonas aeruginosa 27853 by NCCLS protocol based broth microdilution method; type: functional
Klebsiella pneumoniae [7] = test: Antibacterial activity against Klebsiella pneumoniae 13883 by NCCLS protocol based broth microdilution method; type: functional
Enterococcus faecalis [8] = test: Antibacterial activity against Enterococcus faecalis ATCC 29212 by NCCLS protocol based broth microdilution method; type: functional
Haemophilus influenzae [9] = test: Antibacterial activity against Haemophilus influenzae 49247; type: functional
Haemophilus influenzae [10] = test: Antibacterial activity against Haemophilus influenzae 33929; type: functional
Streptococcus pneumoniae [11] = test: Antibacterial activity against Streptococcus pneumoniae 655 mefA; type: functional
Escherichia coli [12] = test: Antibacterial activity against Escherichia coli DK A2058G; type: functional
Streptococcus pneumoniae [13] = test: Antibacterial activity against Streptococcus pneumoniae ATCC 49619; type: functional
Escherichia coli [14] = test: Antibacterial activity against Escherichia coli DK pKK 3535; type: functional
Streptococcus pyogenes [15] = test: Antibacterial activity against Streptococcus pyogenes ATCC 19615; type: functional
Staphylococcus aureus [16] = test: Antibacterial activity against Staphylococcus aureus ATCC 29213; type: functional
Escherichia coli [17] = test: Antibacterial activity against Escherichia coli ATCC 25922; type: functional
Klebsiella pneumoniae [18] = test: Antibacterial activity against Klebsiella pneumoniae ATCC 10031; type: functional
Enterococcus faecalis [19] = test: Antibacterial activity against Enterococcus faecalis ATCC 29212; type: functional
Streptococcus pneumoniae [20] = test: Antibacterial activity against Streptococcus pneumoniae UNT-042 expressing ErmB/MefA; type: functional
Staphylococcus aureus [21] = test: Antibacterial activity against Staphylococcus aureus BAA-977 expressing iermA; type: functional
Haemophilus influenzae [22] = test: Antibacterial activity against Haemophilus influenzae ATCC 49247; type: functional
Staphylococcus aureus [23] = test: Antibacterial activity against methicillin resistant Staphylococcus aureus MP513 expressing cErmA; type: functional
Enterococcus faecalis [24] = test: Antibacterial activity against Enterococcus faecalis UN-047 VRE expressing ErmS; type: functional
Staphylococcus aureus [25] = test: Antibacterial activity against methicillin resistant Staphylococcus aureus NRS384 expressing MsrA; type: functional
Pseudomonas aeruginosa [26] = test: Antibacterial activity against Pseudomonas aeruginosa ATCC 27853; type: functional
Acinetobacter baumannii = test: Antibacterial activity against Acinetobacter baumannii ATCC 19606; type: functional; conditions: ATCC 19606 = CIP 70.34 = JCM 6841
Streptococcus pyogenes [27] = test: Antibacterial activity against Streptococcus pyogenes ATCC 19615 after 24 hrs by broth microdilution method; type: functional; conditions: ATCC 19615, 24 h
Staphylococcus aureus [28] = test: Antibacterial activity against Staphylococcus aureus 10 after 24 hrs by broth microdilution method; type: functional; conditions: Staphylococcus aureus, 10, 24 h
Streptococcus pneumoniae [29] = test: Antibacterial activity against Streptococcus pneumoniae ATCC 49619 after 24 hrs by broth microdilution method; type: functional; conditions: ATCC 49619, 24 h
Escherichia coli [30] = test: Antibacterial activity against Escherichia coli ECM1888 after 24 hrs by broth microdilution method; type: functional; conditions: ECM1888, 24 h
Staphylococcus aureus [31] = test: Antibacterial activity against Staphylococcus aureus ATCC 25923 after 24 hrs by broth microdilution method; type: functional; conditions: ATCC 25923, 24 h
Enterococcus faecium [32] = test: Antibacterial activity against Enterococcus faecium 569 after 24 hrs by broth microdilution method; type: functional; conditions: Enterococcus faecium, 569, 24 h
Pasteurella multocida = test: Antibacterial activity against Pasteurella multocida IATCC 11039 after 24 hrs by broth microdilution method; type: functional; conditions: IATCC 11039, 24 h
[33] = system: Staphylococcus epidermidis; test: Antibacterial activity against Staphylococcus epidermidis ATCC 12228 after 24 hrs by broth microdilution method; type: functional; conditions: ATCC 12228, 24 h
Escherichia coli [34] = test: Antibacterial activity against Escherichia coli leuS ANA395 after 24 hrs by broth microdilution method; type: functional; conditions: leuS ANA395, 24 h
Cutibacterium acnes = test: Antibacterial activity against Propionibacterium acnes ATCC 6919 after 24 hrs by broth microdilution method; type: functional; conditions: ATCC 6919, 24 h
Histophilus somni = test: Antibacterial activity against Histophilus somni ATCC 700025 after 24 hrs by broth microdilution method; type: functional; conditions: ATCC 700025, 24 h
Enterococcus faecium [35] = test: Antibacterial activity against Enterococcus faecium 568 after 24 hrs by broth microdilution method; type: functional; conditions: Enterococcus faecium, 568, 24 h
Mannheimia haemolytica = test: Antibacterial activity against Mannheimia haemolytica IATCC 33396 after 24 hrs by broth microdilution method; type: functional; conditions: IATCC 33396, 24 h

CC[C@H]1OC(=O)[C@H](C)[C@@H](O[C@H]2C[C@@](C)(OC)[C@@H](OC(=O)NC[C@H]3OB(O)c4ccccc43)[C@H](C)O2)[C@H](C)[C@@H](O[C@@H]2O[C@H](C)C[C@H](N(C)C)[C@H]2O)[C@](C)(OC)C[C@@H](C)C(=O)[C@H](C)[C@@H](O)[C@]1(C)O
MIC (Staphylococcus aureus [1]): 2 µg/mL (≈ 2.13 µM)
MIC [2]: > 64 µg/mL
MIC (Escherichia coli [3]): > 64 µg/mL
MIC (Streptococcus pneumoniae [4]): 0.5 µg/mL (≈ 0.534 µM)
MIC [5]: 0.5 µg/mL (≈ 0.534 µM)
MIC (Pseudomonas aeruginosa [6]): > 64 µg/mL
MIC (Klebsiella pneumoniae [7]): > 64 µg/mL
MIC (Enterococcus faecalis [8]): 4 µg/mL (≈ 4.27 µM)

CC[C@H]1OC(=O)[C@H](C)C(=O)[C@H](C)[C@@H](O[C@@H]2O[C@H](C)C[C@H](N(C)C)[C@H]2O)[C@@]2(C)C[C@@H](C)/C(=N\C(C)=O)[C@H](C)[C@@H](OC/C(=N\OCc3ccc(-c4ccno4)cn3)CO2)[C@]1(C)O
MIC (Haemophilus influenzae [9]): 4 µg/mL (≈ 4.75 µM)
MIC (Haemophilus influenzae [10]): 4 µg/mL (≈ 4.75 µM)

CC[C@H]1OC(=O)[C@@](C)(F)C(=O)[C@H](C)[C@@H](O[C@@H]2O[C@H](C)C[C@H](N(C)C)[C@H]2O)[C@](C)(OC)C[C@@H](C)C(=O)[C@H](C)[C@H]2N(CCCCn3nncc3-c3cccs3)C(=O)O[C@]12C
MIC (Streptococcus pneumoniae [11]): 0.5 µg/mL (≈ 0.598 µM)
MIC (Escherichia coli [12]): 0.004 µg/mL (≈ 0.00478 µM)
MIC (Streptococcus pneumoniae [13]): 1 µg/mL (≈ 1.2 µM)
MIC (Escherichia coli [14]): 1 µg/mL (≈ 1.2 µM)

CC[C@H]1OC(=O)[C@H](C)C(=O)[C@H](C)[C@@H](O[C@@H]2O[C@H](C)C[C@H](N(C)C)[C@H]2O)[C@](C)(OC)C[C@@H](C)CN[C@H](C)[C@H]2N(CCCCn3cc(-c4cccc(N)c4)nn3)C(=O)O[C@]12C
MIC (Streptococcus pyogenes [15]): ≤ 0.03 µg/mL
MIC (Staphylococcus aureus [16]): 0.5 µg/mL (≈ 0.604 µM)
MIC (Escherichia coli [17]): 4 µg/mL (≈ 4.83 µM)
MIC (Klebsiella pneumoniae [18]): 2 µg/mL (≈ 2.42 µM)
MIC (Enterococcus faecalis [19]): 0.125 µg/mL (≈ 0.151 µM)
MIC (Streptococcus pneumoniae [20]): 2 µg/mL (≈ 2.42 µM)
MIC (Staphylococcus aureus [21]): 0.5 µg/mL (≈ 0.604 µM)
MIC (Haemophilus influenzae [22]): 2 µg/mL (≈ 2.42 µM)
MIC (Staphylococcus aureus [23]): > 64 µg/mL
MIC (Enterococcus faecalis [24]): > 64 µg/mL
MIC (Staphylococcus aureus [25]): 1 µg/mL (≈ 1.21 µM)
MIC (Streptococcus pneumoniae [13]): ≤ 0.03 µg/mL
MIC (Pseudomonas aeruginosa [26]): 64 µg/mL (≈ 77.3 µM)
MIC (Acinetobacter baumannii): 4 µg/mL (≈ 4.83 µM)

CC[C@H]1OC(=O)[C@@](C)(F)C(=O)[C@H](C)[C@@H](O[C@@H]2O[C@H](C)C[C@H](N(C)C)[C@H]2O)[C@](C)(OC)C[C@@H](C)C(=O)[C@H](C)[C@H]2N(CCCCn3cc(-c4cccs4)nn3)C(=O)O[C@]12C
MIC (Streptococcus pneumoniae [11]): 0.5 µg/mL (≈ 0.598 µM)
MIC (Escherichia coli [12]): 0.004 µg/mL (≈ 0.00478 µM)
MIC (Streptococcus pneumoniae [13]): 1 µg/mL (≈ 1.2 µM)
MIC (Escherichia coli [14]): 1 µg/mL (≈ 1.2 µM)

CC[C@H]1OC(=O)[C@H](C)[C@@H](O[C@H]2C[C@@](C)(OC)[C@@H](OC(=O)NCCCNC(=O)CCc3cccc4c3B(O)OC4)[C@H](C)O2)[C@H](C)[C@@H](O[C@@H]2O[C@H](C)C[C@H](N(C)C)[C@H]2O)[C@](C)(O)C[C@@H](C)CN(C)[C@H](C)[C@H]2OC(=O)O[C@@]21C
MIC (Streptococcus pyogenes [27]): 0.25 µg/mL (≈ 0.235 µM)
MIC (Staphylococcus aureus [28]): 0.5 µg/mL (≈ 0.47 µM)
MIC (Streptococcus pneumoniae [29]): 0.13 µg/mL (≈ 0.122 µM)
MIC (Escherichia coli [30]): 8 µg/mL (≈ 7.53 µM)
MIC (Staphylococcus aureus [31]): 4 µg/mL (≈ 3.76 µM)
MIC (Enterococcus faecium [32]): 2 µg/mL (≈ 1.88 µM)
MIC (Pasteurella multocida): 4 µg/mL (≈ 3.76 µM)
MIC [33]: 8 µg/mL (≈ 7.53 µM)
MIC (Escherichia coli [34]): 8 µg/mL (≈ 7.53 µM)
MIC (Cutibacterium acnes): ≤ 0.12 µg/mL
MIC (Histophilus somni): 4 µg/mL (≈ 3.76 µM)
MIC (Enterococcus faecium [35]): 0.13 µg/mL (≈ 0.122 µM)
MIC (Mannheimia haemolytica): 8 µg/mL (≈ 7.53 µM)

From ChEMBL document CHEMBL4334493, “14- and 15-membered lactone macrolides and their analogues and hybrids: structure, molecular mechanism of action and biological activity” (Eur J Med Chem, 2019)
